Measurements published in publication PMC6318807 (ACS chemical neuroscience, 2018).

Biological target: EP2 receptor (Homo sapiens, UniProt P43116)
Experiment: TR-FRET cAMP
Assay type: cell-based

Sequence of EP2 receptor (P43116 whole entry): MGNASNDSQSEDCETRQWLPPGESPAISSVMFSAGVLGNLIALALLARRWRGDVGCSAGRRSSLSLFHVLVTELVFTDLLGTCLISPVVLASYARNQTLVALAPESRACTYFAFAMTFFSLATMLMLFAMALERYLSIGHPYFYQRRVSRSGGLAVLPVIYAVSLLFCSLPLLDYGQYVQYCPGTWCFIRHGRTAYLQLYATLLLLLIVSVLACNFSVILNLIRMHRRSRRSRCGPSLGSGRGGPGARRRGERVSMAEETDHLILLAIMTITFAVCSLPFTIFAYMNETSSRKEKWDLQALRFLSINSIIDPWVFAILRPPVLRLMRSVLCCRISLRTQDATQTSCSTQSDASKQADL

| SMILES | TR-FRET cAMP; fold leftward shift of PGE2 EC50 at 20 μM compound |
| --- | --- |
| CC(C)Sc1cc(N2CCOCC2)nc(-c2ccccc2)n1 [CID852313] | 2.4 fold shift of PGE2 EC50 at 20 μM |
| FC(F)(F)c1cc(-c2ccccc2)nc(N2CCOCC2)n1 [CID891729, 4-[4-phenyl-6-(trifluoromethyl)pyrimidin-2-yl]morpholine] | 2.4 fold shift of PGE2 EC50 at 20 μM |
| COc1ccc(-c2cc(C(F)(F)F)nc(N3CCOCC3)n2)cc1OC [CID2992168, 4-[4-(3,4-dimethoxyphenyl)-6 (trifluoromethyl)pyrimidin-2-yl]morpholine] | 2.7 fold shift of PGE2 EC50 at 20 μM |

Second part, the compound after the results:

| TR-FRET cAMP; fold leftward shift of PGE2 EC50 at 20 μM compound | SMILES |
| --- | --- |
| 2.4 fold shift of PGE2 EC50 at 20 μM | CC(C)Sc1cc(N2CCOCC2)nc(-c2ccc(Cl)cc2)n1 [CID852308] |
| 4.3 fold shift of PGE2 EC50 at 20 μM | O=C(Nc1ccccc1N1CCCCC1)c1ccc(F)cc1 [CID890517, 4-fluoro-N-(2-piperidin-1-ylphenyl)benzamide] |
| 2.5 fold shift of PGE2 EC50 at 20 μM | CC1CCN(c2ccccc2NC(=O)c2ccc(F)cc2)CC1 [CID953673, 4-fluoro-N-(2-(4-methylpiperidin-1-yl)phenyl)benzamide] |
| 2.5 fold shift of PGE2 EC50 at 20 μM | O=C(Nc1cccc(Cl)c1N1CCCCC1)c1ccc2c(c1)OCCO2 [CID1254488] |
| 3.3 fold shift of PGE2 EC50 at 20 μM | Cc1ccccc1C(=O)Nc1ccccc1N1CCCCC1 [CID2340325, 2-methyl-N-(2-piperidin-1-ylphenyl)benzamide] |
